We go through five molecules from paper PMC3163375, “Design, Synthesis and Biological Evaluation of New 5,5-Diarylhydantoin Derivatives as Selective Cyclooxygenase-2 Inhibitors” (Scientia Pharmaceutica, 2011).

The target in one series is T1, ovine COX-2 (Ovis aries, UniProt P79208).
T1 construct: purchased Cayman Chemical, Ann Arbor, MI, USA
T1 sequence (P79208 17-603): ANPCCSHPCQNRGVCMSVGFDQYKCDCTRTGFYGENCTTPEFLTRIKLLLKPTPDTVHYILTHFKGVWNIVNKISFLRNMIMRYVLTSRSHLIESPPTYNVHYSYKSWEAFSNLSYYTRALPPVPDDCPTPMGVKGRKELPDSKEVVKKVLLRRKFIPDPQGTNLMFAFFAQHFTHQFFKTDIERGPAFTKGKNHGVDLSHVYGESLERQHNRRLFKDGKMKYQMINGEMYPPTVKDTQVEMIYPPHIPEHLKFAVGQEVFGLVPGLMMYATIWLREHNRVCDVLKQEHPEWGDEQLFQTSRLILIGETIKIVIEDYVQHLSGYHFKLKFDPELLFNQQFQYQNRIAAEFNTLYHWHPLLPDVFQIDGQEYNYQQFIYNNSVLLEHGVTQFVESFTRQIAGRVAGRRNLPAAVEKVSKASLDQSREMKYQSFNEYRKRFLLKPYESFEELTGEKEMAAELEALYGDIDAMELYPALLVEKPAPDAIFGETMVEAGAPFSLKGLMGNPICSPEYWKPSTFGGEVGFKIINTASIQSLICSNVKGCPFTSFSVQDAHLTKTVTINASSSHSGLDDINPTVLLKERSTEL
The experiment in a line: In vitro COX-2 enzyme inhibition, chemiluminescent enzyme assay kit (Cayman). The series is classed as biochemical. The settings on record: for Selectivity index (SI): In vitro COX-2 selectivity index (COX-1 IC50/COX-2 IC50); for IC50: ovine COX-1/COX-2 assay kit, means of two determinations, deviation < 10% of the mean. The procedure:
(§1) All of the prepared 5,5-diarylhydantoin derivatives having different substituents at the N-3 hydantoin ring were evaluated to investigate the effect of different alkyls on COX-2 selectivity and potency. The ability of the 5,5-diarylhydantoin 4–8 to inhibit the COX-1 and COX-2 isozymes was determined using chemiluminescent enzyme assays (see enzyme inhibition data in Table 1.) according to our previously reported method.
(§2) The ability of the test compounds listed in Table 1 to inhibit ovine COX-1 and COX-2 (IC50 value, μM) was determined using chemiluminescent enzyme assays kit (Cayman Chemical, Ann Arbor, MI, USA) according to our previously reported method.

A further series concerns the target T2, ovine COX-1 (Ovis aries, UniProt P05979).
T2 construct: purchased Cayman Chemical, Ann Arbor, MI, USA
T2 sequence (P05979 25-600): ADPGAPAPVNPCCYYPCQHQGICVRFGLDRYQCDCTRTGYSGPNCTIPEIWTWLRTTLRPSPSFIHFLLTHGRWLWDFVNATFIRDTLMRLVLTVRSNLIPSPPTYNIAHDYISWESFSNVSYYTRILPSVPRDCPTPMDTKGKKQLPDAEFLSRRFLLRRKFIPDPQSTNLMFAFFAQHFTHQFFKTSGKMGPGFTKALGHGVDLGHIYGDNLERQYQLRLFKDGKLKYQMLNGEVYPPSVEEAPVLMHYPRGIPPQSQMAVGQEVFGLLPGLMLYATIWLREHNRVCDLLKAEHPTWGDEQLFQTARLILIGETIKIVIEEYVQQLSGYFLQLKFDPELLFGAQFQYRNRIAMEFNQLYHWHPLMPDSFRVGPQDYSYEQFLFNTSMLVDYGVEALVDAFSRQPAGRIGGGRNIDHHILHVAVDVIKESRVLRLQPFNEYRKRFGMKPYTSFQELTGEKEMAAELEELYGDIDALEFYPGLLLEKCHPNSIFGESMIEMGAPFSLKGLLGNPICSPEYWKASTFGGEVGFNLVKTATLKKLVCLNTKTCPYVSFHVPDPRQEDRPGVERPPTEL
Kind of series: In vitro COX-1 enzyme inhibition, chemiluminescent enzyme assay kit (Cayman). The class given is biochemical. To be noted: ovine COX-1/COX-2 assay kit; means of two determinations, deviation < 10% of the mean. The method, then:
as §1, §2

One may read the melting point as the temperature of the solid-liquid transition. As usually defined, the IC50 is the concentration at which inhibition is half-maximal. A low value points to higher potency. Turning to `CCN1C(=O)NC(c2ccccc2)(c2ccc(S(C)(=O)=O)cc2)C1=O` (stereo not shown) [Compound 6, 3-Ethyl-5-[4-(methylsulfonyl)phenyl]-5-phenylimidazolidine-2,4-dione], the melting point was 91 to 92 °C. Moreover, at ovine COX-2, the “Selectivity index (SI)” value is given as 206.2 and inhibition was half-maximal at 98 nM (IC50). On ovine COX-1, the IC50 was found to be 20200 nM.

As for `CS(=O)(=O)c1ccc(C2(c3ccccc3)NC(=O)NC2=O)cc1` (stereo not shown) [Compound 4, 5-[4-(Methylsulfonyl)phenyl]-5-phenylimidazolidine-2,4-dione], on ovine COX-2, the “Selectivity index (SI)” value is recorded as >1298 and it took 77 nM to reach half-maximal inhibition (IC50). Also, the IC50 against ovine COX-1 was > 100000 nM.

For `CCCN1C(=O)NC(c2ccccc2)(c2ccc(S(C)(=O)=O)cc2)C1=O` (stereo not shown) [Compound 7, 5-[4-(Methylsulfonyl)phenyl]-5-phenyl-3-propylimidazolidine-2,4-dione], the melting point was in the range of 82 to 83 °C. Moreover, at ovine COX-2, the “Selectivity index (SI)” value is 70.2 and half-maximal inhibition (IC50) was put at 171 nM. Further, the IC50 on ovine COX-1 stood at 12000 nM.

On to `CN1C(=O)NC(c2ccccc2)(c2ccc(S(C)(=O)=O)cc2)C1=O` (stereo not shown) [Compound 5, 3-Methyl-5-[4-(methylsulfonyl)phenyl]-5-phenylimidazolidine-2,4-dione], for which the melting point was 212 to 214 °C. In addition, on ovine COX-2, the “Selectivity index (SI)” value is 280.1 and the IC50 was 81 nM. Further, on ovine COX-1, the IC50 is 22700 nM.

For `C=CCN1C(=O)NC(c2ccccc2)(c2ccc(S(C)(=O)=O)cc2)C1=O` (stereo not shown) [Compound 8, 5-[4-(Methylsulfonyl)phenyl]-5-phenyl-3-(prop-2-en-1-yl)imidazolidine-2,4-dione], the melting point lay within 129 to 130 °C. At ovine COX-2, the “Selectivity index (SI)” value stood at 151.1 and the half-maximal inhibitory concentration (IC50) is 99 nM. This molecule also came in with an IC50 on ovine COX-1 of 15000 nM.
